Legend:
Assay type in all cases: in vivo
Setaria faberi (SETFA) [1] = assay: Test 1 glasshouse assay, post-emergence herbicidal activity; conditions: 312 h, post-emergence (Example 1B Table 1), after 13 days, read-out: Percentage phytotoxicity SETFA
Description: (§1) Seeds of a variety of test species are sown in standard soil in pots. After cultivation for one day (pre-emergence) or after 8 days cultivation (post-emergence) under controlled conditions in a glasshouse (at 24/16° C., day/night; 14 hours light; 65% humidity), the plants are sprayed with an aqueous spray solution derived from the formulation of the “technical” (i.e. unformulated) active ingredient in acetone/water (50:50) solution containing 0.5% Tween 20 (polyoxyethylene sorbitan monolaurate, CAS Registry Number 9005-64-5). The test plants are then grown on under controlled conditions in a glasshouse (at 24/16° C., day/night; 14 hours light; 65% humidity) and watered twice daily. After 13 days for pre- or post-emergence, the test is evaluated visually, and an assessed percentage phytotoxicity score is given for each herbicidal application on each plant species (where 100%=total damage to plant; 0%=no damage to plant).
(§2) Test plants include the following: Abutilon theophrasti (ABUTH) and Amaranthus retroflexus (AMARE); these are all dicotyledonous (broadleaved) weeds. Setaria faberi (SETFA), Alopecurus myosuroides (ALOMY), and Echinochloa crus-galli (ECHCG); these are all grassy monocotyledonous weeds. Also: Zea mays (ZEAMX, corn/maize), which can be a grassy weed (“volunteer” corn) in some circumstances.

[2] = system: Zea mays (ZEAMX, corn/maize); assay: as above; conditions: 312 h, post-emergence (Example 1B Table 1), after 13 days, read-out: Percentage phytotoxicity ZEAMX
Description: as §1, §2

[3] = system: Amaranthus retroflexus (AMARE); assay: as above; conditions: 312 h, post-emergence (Example 1B Table 1), after 13 days, read-out: Percentage phytotoxicity AMARE
Description: as §1, §2

[4] = system: Abutilon theophrasti (ABUTH); assay: as above; conditions: 312 h, post-emergence (Example 1B Table 1), after 13 days, read-out: Percentage phytotoxicity ABUTH
Description: as §1, §2

Avena fatua (AVEFA) = assay: as above; conditions: 312 h, post-emergence (Example 1B Table 2), after 13 days, read-out: Percentage phytotoxicity AVEFA
Description: as §1
(§3) Lolium perenne (LOLPE), Alopecurus myosuroides (ALOMY), Echinochloa crus-galli (ECHCG), and Avena fatua (AVEFA); these are all grassy monocotyledonous weeds. Cool climate crop plant: Triticum aestivum (TRZAW, winter wheat).

[5] = system: Triticum aestivum (TRZAW, winter wheat); assay: as above; conditions: 312 h, post-emergence (Example 1B Table 2), after 13 days, crop plant, read-out: Percentage phytotoxicity TRZAW
Description: as §1, §3

Lolium perenne (LOLPE) = assay: as above; conditions: 312 h, post-emergence (Example 1B Table 2), after 13 days, read-out: Percentage phytotoxicity LOLPE
Description: as §1, §3

[6] = system: Alopecurus myosuroides (ALOMY); assay: as above; conditions: 312 h, after 13 days, read-out: Percentage phytotoxicity ALOMY
Description: as §1, §2, §3

[7] = system: Echinochloa crus-galli (ECHCG); assay: as above; conditions: 312 h, after 13 days, read-out: Percentage phytotoxicity ECHCG
Description: as §1, §2, §3

Setaria faberi (SETFA) [8] = assay: Test 1 glasshouse assay, pre-emergence herbicidal activity; conditions: 312 h, visual evaluation after 13 days, read-out: Percentage phytotoxicity SETFA
Description: as §1
(§4) Test plants include the following: Abutilon theophrasti (ABUTH), Amaranthus retroflexus (AMARE): these are dicotyledonous (broadleaved) weeds. Setaria faberi (SETFA), Alopecurus myosuroides (ALOMY), Echinochloa crus-galli (ECHCG): these are grassy monocotyledonous weeds. Also: Zea mays (ZEAMX, corn/maize), which can be a grassy weed (“volunteer” corn) in some circumstances.

[9] = system: Alopecurus myosuroides (ALOMY); assay: as above; conditions: 312 h, visual evaluation after 13 days, read-out: Percentage phytotoxicity ALOMY
Description: as §1, §4

[10] = system: Zea mays (ZEAMX, corn/maize); assay: as above; conditions: 312 h, visual evaluation after 13 days, read-out: Percentage phytotoxicity ZEAMX
Description: as §1, §4

[11] = system: Amaranthus retroflexus (AMARE); assay: as above; conditions: 312 h, visual evaluation after 13 days, read-out: Percentage phytotoxicity AMARE
Description: as §1, §4

[12] = system: Echinochloa crus-galli (ECHCG); assay: as above; conditions: 312 h, visual evaluation after 13 days, read-out: Percentage phytotoxicity ECHCG
Description: as §1, §4

[13] = system: Abutilon theophrasti (ABUTH); assay: as above; conditions: 312 h, visual evaluation after 13 days, read-out: Percentage phytotoxicity ABUTH
Description: as §1, §4

[14] = post-emergence (Example 1B Table 1), 31.25 g/ha
[15] = post-emergence (Example 1B Table 1)
[16] = post-emergence (Example 1B Table 2), 62.5 g/ha
[17] = post-emergence (Example 1B Table 2)

SMILES | pest or weed control at 250 g/ha (Setaria faberi (SETFA) [1]) [%] | pest or weed control at 250 g/ha [2] [%] | pest or weed control at 250 g/ha [3] [%] | pest or weed control at 250 g/ha [4] [%] | pest or weed control at 250 g/ha [6, 15] [%] | pest or weed control at 250 g/ha [7, 15] [%] | pest or weed control at 250 g/ha (Setaria faberi (SETFA) [8]) [%] | pest or weed control at 250 g/ha [9] [%] | pest or weed control at 250 g/ha [10] [%] | pest or weed control at 250 g/ha [11] [%] | pest or weed control at 250 g/ha [12] [%] | pest or weed control at 250 g/ha [13] [%] | also measured
C#CCC1CC(=O)C(c2c(C)cc(-c3ncc(Cl)cn3)cc2C)C1=O (stereo not shown) [Compound A5, 2-[4-(5-chloropyrimidin-2-yl)-2,6-dimethylphenyl]-4-prop-2-ynylcyclopentane-1,3-dione] | 100 | 100 | 90 | 90 | 100 | 100 | 100 | 100 | 100 | 100 | 100 | 70 | pest or weed control at 31.25 g/ha (Setaria faberi (SETFA) [1]; 31.25 g/ha): 100%; pest or weed control at 31.25 g/ha ([2]; 31.25 g/ha): 100%; pest or weed control at 31.25 g/ha ([3]; 31.25 g/ha): 30%; pest or weed control at 31.25 g/ha ([4]; 31.25 g/ha): 30%; pest or weed control at 62.5 g/ha (Avena fatua (AVEFA); 62.5 g/ha): 100%; pest or weed control at 250 g/ha (Avena fatua (AVEFA); 250 g/ha): 100%; plant injury at 62.5 g/ha ([5]; 62.5 g/ha): 80%; plant injury at 250 g/ha ([5]; 250 g/ha): 90%; pest or weed control at 62.5 g/ha (Lolium perenne (LOLPE); 62.5 g/ha): 90%; pest or weed control at 250 g/ha (Lolium perenne (LOLPE); 250 g/ha): 100%; pest or weed control at 31.25 g/ha [6, 14]: 80%; pest or weed control at 62.5 g/ha [6, 16]: 90%; pest or weed control at 250 g/ha [6, 17]: 100%; pest or weed control at 31.25 g/ha [7, 14]: 100%; pest or weed control at 62.5 g/ha [7, 16]: 100%; pest or weed control at 250 g/ha [7, 17]: 100%
C#CCC1CC(=O)C(c2cc(-c3ccc(Cl)cn3)ccc2C)C1=O (stereo not shown) [Compound A17] | 80 | 60 | 50 | 10 | 70 | 80 | 70 | 70 | 60 | 10 | 70 | 10 | –

Reference: US10375956B2, “Herbicidally active 2-(substituted-phenyl)-cyclopentane-1,3-dione compounds and derivatives thereof” (Syngenta Limited, priority 2013, dated 2019)
